According to US9290451B2 (Hoffmann-La Roche Inc., priority 2011, dated 2016):

Assays:
human CB2 receptors = human CB2 receptors (Homo sapiens (Human), UniProt P34972); test: cAMP assay, CHO cells expressing human CB2 receptors; format: cell-based; settings: CHO cells expressing human CB2, cAMP; read-out: human CB2 EC50
Outline: (§1)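 In this cellular cAMP test, IBMX (1 mM) blocked phosphodiesterase during a 30-min, 30 °C compound exposure. Accumulated cAMP was measured by a lysis-based TR-FRET kit and interpolated from a standard curve to give EC50.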

human CB1 receptors = human CB1 receptors (Homo sapiens (Human), UniProt P21554); test: cAMP assay, CHO cells expressing human CB1 receptors; format: cell-based; settings: CHO cells expressing human CB1, cAMP; read-out: human CB1 EC50
Outline: as §1

human CB1 receptors, sequence (P21554 whole entry): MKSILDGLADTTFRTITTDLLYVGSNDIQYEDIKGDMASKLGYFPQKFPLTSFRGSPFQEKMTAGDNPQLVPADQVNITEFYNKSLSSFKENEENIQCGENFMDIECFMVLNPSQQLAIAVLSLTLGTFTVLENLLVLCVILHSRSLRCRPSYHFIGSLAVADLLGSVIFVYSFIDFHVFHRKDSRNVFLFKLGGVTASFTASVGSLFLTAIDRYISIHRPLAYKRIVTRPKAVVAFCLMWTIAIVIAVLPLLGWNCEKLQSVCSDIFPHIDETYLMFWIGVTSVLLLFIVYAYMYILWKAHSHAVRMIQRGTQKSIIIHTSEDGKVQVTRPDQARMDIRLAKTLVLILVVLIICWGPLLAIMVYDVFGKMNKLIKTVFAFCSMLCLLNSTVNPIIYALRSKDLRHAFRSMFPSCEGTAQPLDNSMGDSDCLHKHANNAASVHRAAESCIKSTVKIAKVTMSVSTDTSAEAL
human CB2 receptors, sequence (P34972 whole entry): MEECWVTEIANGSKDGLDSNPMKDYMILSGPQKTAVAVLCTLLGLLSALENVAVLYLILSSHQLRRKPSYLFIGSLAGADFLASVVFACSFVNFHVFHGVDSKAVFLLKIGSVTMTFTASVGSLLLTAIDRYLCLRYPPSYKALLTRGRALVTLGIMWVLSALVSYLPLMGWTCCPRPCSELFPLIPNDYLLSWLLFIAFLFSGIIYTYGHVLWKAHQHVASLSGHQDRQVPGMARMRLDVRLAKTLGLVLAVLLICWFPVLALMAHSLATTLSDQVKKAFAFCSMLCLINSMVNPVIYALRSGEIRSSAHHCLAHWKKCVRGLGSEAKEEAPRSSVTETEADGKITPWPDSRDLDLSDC

SMILES | EC50 (human CB2 receptors) [nM] | EC50 (human CB1 receptors) [nM]
Cc1nc([C@@H](C)NC(=O)c2ccc(C3CC3)c(OCC3CC3)n2)no1 [Example 241, 5-Cyclopropyl-6-cyclopropylmethoxy-pyridine-2-carboxylic acid [(−)-1-(5-methyl-[1,2,4]oxadiazol-3-yl)-ethyl]-amide] | 49.1 | > 10000
Cc1nc([C@H](CC(C)C)NC(=O)c2ccc(C3CC3)c(OCC3CC3)n2)no1 [Example 242, 5-Cyclopropyl-6-cyclopropylmethoxy-pyridine-2-carboxylic acid [(+)-3-methyl-1-(5-methyl-[1,2,4]oxadiazol-3-yl)-butyl]-amide] | 1.2 | > 10000
Cc1nc([C@@H](CC(C)C)NC(=O)c2ccc(C3CC3)c(OCC3CC3)n2)no1 [Example 243, 5-Cyclopropyl-6-cyclopropylmethoxy-pyridine-2-carboxylic acid [(−)-3-methyl-1-(5-methyl-[1,2,4]oxadiazol-3-yl)-butyl]-amide] | 22.1 | 830
CC[C@H](NC(=O)c1ccc(C2CC2)c(OCC2CC2)n1)c1noc(C)n1 [Example 244, 5-Cyclopropyl-6-cyclopropylmethoxy-pyridine-2-carboxylic acid [(+)-1-(5-methyl-[1,2,4]oxadiazol-3-yl)-propyl]-amide] | 14.1 | > 10000
CC[C@@H](NC(=O)c1ccc(C2CC2)c(OCC2CC2)n1)c1noc(C)n1 [Example 245, 5-Cyclopropyl-6-cyclopropylmethoxy-pyridine-2-carboxylic acid [(−)-1-(5-methyl-[1,2,4]oxadiazol-3-yl)-propyl]-amide] | 20.5 | > 10000
C[C@@H](C#N)NC(=O)c1ccc(C2CC2)c(OCC2CC2)n1 [Example 246, 5-Cyclopropyl-6-cyclopropylmethoxy-pyridine-2-carboxylic acid ((−)-cyano-methyl-methyl)-amide] | 215 | 2470
CC(C)C[C@H](C#N)NC(=O)c1ccc(C2CC2)c(OCC2CC2)n1 [Example 247, 5-Cyclopropyl-6-cyclopropylmethoxy-pyridine-2-carboxylic acid ((−)-1-cyano-3-methyl-butyl)-amide] | 5.6 | > 10000
N#C[C@H](NC(=O)c1ccc(C2CC2)c(OCC2CC2)n1)C1CC1 [Example 248, 5-Cyclopropyl-6-cyclopropylmethoxy-pyridine-2-carboxylic acid ((+)-cyano-cyclopropyl-methyl)-amide] | 51 | > 10000
CCC(CC)(NC(=O)c1ccc(C(F)(F)F)c(OCC2CC2)n1)C(=O)OC [Example 249, 2-[(6-Cyclopropylmethoxy-5-trifluoromethyl-pyridine-2-carbonyl)-amino]-2-ethyl-butyric acid methyl ester] | 2.2 | > 10000
CCC(CC)(NC(=O)c1ccc(C2CC2)c(OCC2CCCO2)n1)C(=O)NC (centres unmarked) [Example 250, 5-Cyclopropyl-6-(tetrahydro-furan-2-ylmethoxy)-pyridine-2-carboxylic acid (1-ethyl-1-methylcarbamoyl-propyl)-amide] | 9.5 | > 10000
CCC(CC)(NC(=O)c1ccc(C2CC2)c(OCC2CC2)n1)C(=O)OC [Example 251, 2-[(5-Cyclopropyl-6-cyclopropylmethoxy-pyridine-2-carbonyl)-amino]-2-ethyl-butyric acid methyl ester] | 1.4 | 90.6
CCC(CC)(NC(=O)c1ccc(C(F)(F)F)c(OCC2CC2)n1)C(=O)O [Example 252, 2-[(6-Cyclopropylmethoxy-5-trifluoromethyl-pyridine-2-carbonyl)-amino]-2-ethyl-butyric acid] | 552 | > 10000
CCC(CC)(NC(=O)c1ccc(C(F)(F)F)c(OCC2CCOCC2)n1)C(=O)NC [Example 253, 6-(Tetrahydro-pyran-4-ylmethoxy)-5-trifluoromethyl-pyridine-2-carboxylic acid (1-ethyl-1-methylcarbamoyl-propyl)-amide] | 14.3 | > 10000
CCOC(=O)C(CC)(CC)NC(=O)c1ccc(C(F)(F)F)c(OCC2CCCO2)n1 (centres unmarked) [Example 254, 2-Ethyl-2-{[6-(tetrahydro-furan-2-ylmethoxy)-5-trifluoromethyl-pyridine-2-carbonyl]-amino}-butyric acid ethyl ester] | 2.3 | 518
CN(C)C(=O)C(NC(=O)c1ccc(N2CC(F)(F)C2)c(OCC2CC2)n1)c1ccccc1 (centres unmarked) [Example 255, 6-Cyclopropylmethoxy-5-(3,3-difluoro-azetidin-1-yl)-pyridine-2-carboxylic acid (dimethylcarbamoyl-phenyl-methyl)-amide] | 61.3 | > 10000
CN(C)C(=O)[C@H](CC1CC1)NC(=O)c1ccc(N2CC(F)(F)C2)c(OCC2CC2)n1 [Example 256, 6-Cyclopropylmethoxy-5-(3,3-difluoro-azetidin-1-yl)-pyridine-2-carboxylic acid ((S)-2-cyclopropyl-1-dimethylcarbamoyl-ethyl)-amide] | 9.3 | > 10000

SMILES | EC50 (human CB2 receptors) [nM] | EC50 (human CB1 receptors) [nM]
CCOC(=O)C(CC)(CC)NC(=O)c1ccc(C2CC2)c(OCC2CC2)n1 [Example 257, 2-[(5-Cyclopropyl-6-cyclopropylmethoxy-pyridine-2-carbonyl)-amino]-2-ethyl-butyric acid ethyl ester] | 2.3 | 347
COC(=O)[C@H](CC1CC1)NC(=O)c1ccc(C2CC2)c(OCC2CC2)n1 [Example 258, (S)-3-Cyclopropyl-2-[(5-cyclopropyl-6-cyclopropylmethoxy-pyridine-2-carbonyl)-amino]-propionic acid methyl ester] | 7.1 | > 10000
CCC(CC)(NC(=O)c1ccc(C(F)(F)F)c(OCC2CC2)n1)C(=O)NC [Example 259, 6-Cyclopropylmethoxy-5-trifluoromethyl-pyridine-2-carboxylic acid (1-ethyl-1-methylcarbamoyl-propyl)-amide] | 5.1 | > 10000
Cc1nc([C@@H](NC(=O)c2cccc(-c3ccc(F)c(Cl)c3)n2)C2CC2)no1 [Example 260, 6-(3-Chloro-4-fluoro-phenyl)-pyridine-2-carboxylic acid [(−)-cyclopropyl-(5-methyl-[1,2,4]oxadiazol-3-yl)-methyl]-amide] | 24.9 | > 10000
Cc1nc([C@H](NC(=O)c2cccc(-c3ccc(F)c(Cl)c3)n2)C2CC2)no1 [Example 261, 6-(3-Chloro-4-fluoro-phenyl)-pyridine-2-carboxylic acid [(+)-cyclopropyl-(5-methyl-[1,2,4]oxadiazol-3-yl)-methyl]-amide] | 10.1 | 260
CCC(CC)(NC(=O)c1ccc(C(F)(F)F)c(OCC2CCOCC2)n1)C(=O)N(C)C [Example 262, 6-(Tetrahydro-pyran-4-ylmethoxy)-5-trifluoromethyl-pyridine-2-carboxylic acid (1-dimethylcarbamoyl-1-ethyl-propyl)-amide] | 74.8 | > 10000
CCOC(=O)C(CC)(CC)NC(=O)c1ccc(N2CCC23COC3)c(OCC2CC2)n1 [Example 263, 2-{[6-Cyclopropylmethoxy-5-(6-oxa-1-aza-spiro[3.3]hept-1-yl)-pyridine-2-carbonyl]-amino}-2-ethyl-butyric acid ethyl ester] | 4.5 | > 10000
CCC(CC)(NC(=O)c1ccc(C(F)(F)F)c(OCC2CCCO2)n1)C(=O)N(C)C (centres unmarked) [Example 264, 6-(Tetrahydro-furan-2-ylmethoxy)-5-trifluoromethyl-pyridine-2-carboxylic acid (1-dimethylcarbamoyl-1-ethyl-propyl)-amide] | 2.7 | 602
CCOC(=O)C(CC)(CC)NC(=O)c1ccc(Br)c(OCC2CC2)n1 [Example 265, 2-[(5-Bromo-6-cyclopropylmethoxy-pyridine-2-carbonyl)-amino]-2-ethyl-butyric acid ethyl ester] | 2.8 | > 10000
CCOC(=O)C(CC)(CC)NC(=O)c1ccc(N2CC(F)(F)C2)c(OCC2CC2)n1 [Example 266, 2-{[6-Cyclopropylmethoxy-5-(3,3-difluoro-azetidin-1-yl)-pyridine-2-carbonyl]-amino}-2-ethyl-butyric acid ethyl ester] | 2 | 1300
Cc1nc(C(C)(C)NC(=O)c2cccc(-c3ccc(Cl)c(F)c3)n2)no1 [Example 267, 6-(4-Chloro-3-fluoro-phenyl)-pyridine-2-carboxylic acid [1-methyl-1-(5-methyl-[1,2,4]oxadiazol-3-yl)-ethyl]-amide] | 26.4 | > 10000
Cc1nc(C(C)(C)NC(=O)c2cccc(-c3ccc(F)c(Cl)c3)n2)no1 [Example 268, 6-(3-Chloro-4-fluoro-phenyl)-pyridine-2-carboxylic acid [1-methyl-1-(5-methyl-[1,2,4]oxadiazol-3-yl)-ethyl]-amide] | 8.7 | 337
CCC(CC)(NC(=O)c1ccc(N2CC(F)(F)C2=O)c(OCC2CC2)n1)C(=O)OC [Example 269, 2-{[6-Cyclopropylmethoxy-5-(3,3-difluoro-2-oxo-azetidin-1-yl)-pyridine-2-carbonyl]-amino}-2-ethyl-butyric acid methyl ester] | 47.3 | > 10000
COC(=O)[C@H](CC(C)C)NC(=O)c1ccc(C2CC2)c(OCC2CC2)n1 [Example 270, (S)-2-[(5-Cyclopropyl-6-cyclopropylmethoxy-pyridine-2-carbonyl)-amino]-4-methyl-pentanoic acid methyl ester] | 1.3 | 91.4
CC(C)CC(C#N)NC(=O)c1ccc(N2CC(F)(F)C2)c(OCC2CC2)n1 (centres unmarked) [Example 271, 6-Cyclopropylmethoxy-5-(3,3-difluoro-azetidin-1-yl)-pyridine-2-carboxylic acid (1-cyano-3-methyl-butyl)-amide] | 7.9 | > 10000
